Groups on a side chain read outwards from the residue. No end group written: not given here.
Tested on: mouse-adapted Dengue virus (DEN-2, strain P23085)
Test: Dengue virus infection in mice, mortality/survival
Assay type: in vivo, BALB/c mice
Conditions: 4.8 mg/kg/day intramuscular once a day for 5 days, starting on day 3 after infection, end of treatment period (day 10)
Protocol: A further possibility for establishing the biological effect in vivo is the reduction or complete suppression of mortality because of an infection with haemolytic viruses or bacteria. For this purpose, mice are, as described in Example 8, for instance infected with a dose of Dengue viruses, wherein 50% of the animals die within a period of 5-20 days after infection. The inventive compounds bring about a reduction of this mortality at a dose ranging from 0.001 to 500 mg/kg body weight, preferably at a dose ranging from […] body weight.
The biological effect of the compound of Example 3 was established in a model of Dengue virus infection in mice. 5-week-old male BALB/c mice were divided into 2 groups. All animals were infected subcutaneously with a mouse-adapted Dengue virus (DEN-2, strain P23085 at a dose of 1-2 LD50. 15 mice received 0.1 ml of 0.8% saline as intramuscular injection (control). The treated animals received 4.8 mg/kg/day of the agent of Example 3 as an intramuscular injection (diluted in 0.1 ml of 0.8% saline) once a day for 5 days, starting on day 3 after the virus infection.
At the end of the treatment period (day 10) the survival rates were compared.

## Gly-His-Arg-Pro-Leu-Asp-Lys-Lys-Arg-Glu-Glu-Ala-Pro-Ser-Leu-Arg-Pro-Ala-Pro-Pro-Pro-Ile-Ser-Gly-Gly-Gly-Tyr-Arg-Cys-(S-succinimido-PEG20K)-amide (GHRPLDKKREEAPSLRPAPPPISGGGYRC([succinimido-PEG 20 kDa])-NH2) [Example 3]
Infection dose 1-2 LD50
  Mortality (dead animals/animals in group): 0/10
P < 0.05 vs control
  Mortality Percentage: 0%
